We go through five compounds from ChEMBL document CHEMBL1781986, “Structure-activity relationships of pyrrole based S-nitrosoglutathione reductase inhibitors: pyrrole regioisomers and propionic acid replacement” (Bioorg Med Chem Lett, 2011).

Activity calls are given as the source filed them. The calls are words filed in the database; no cut-off is given here.

The IC50 is the midpoint of a concentration-inhibition curve. A higher IC50 goes with lower potency.

For test [1], the species on record is Homo sapiens. Kind of test: Inhibition of human recombinant chloride channel at 10 uM by radioligand binding assay.
The subject of test [2] is Neuropeptide Y receptor type 1. Briefly: Inhibition of human recombinant Y1 receptor at 10 uM by radioligand binding assay.
The target in test [3] is Vasopressin V1a receptor (Homo sapiens) (UniProt P37288). Briefly: Inhibition of human recombinant V1a receptor at 10 uM by radioligand binding assay.
Vasopressin V1a receptor (Homo sapiens), sequence (P37288 whole entry, looked up): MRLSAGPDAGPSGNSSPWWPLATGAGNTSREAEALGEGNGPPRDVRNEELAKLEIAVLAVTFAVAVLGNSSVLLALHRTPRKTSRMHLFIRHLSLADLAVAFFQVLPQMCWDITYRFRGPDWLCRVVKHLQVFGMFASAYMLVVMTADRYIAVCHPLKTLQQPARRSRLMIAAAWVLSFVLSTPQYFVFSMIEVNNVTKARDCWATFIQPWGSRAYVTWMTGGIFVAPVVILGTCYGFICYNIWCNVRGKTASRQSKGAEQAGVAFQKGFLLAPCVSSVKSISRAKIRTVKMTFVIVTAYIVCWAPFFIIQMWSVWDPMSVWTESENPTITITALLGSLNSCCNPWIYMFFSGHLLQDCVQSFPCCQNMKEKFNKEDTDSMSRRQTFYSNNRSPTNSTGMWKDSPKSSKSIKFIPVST
Test [4] addresses Muscarinic acetylcholine receptor M3 (Homo sapiens) (UniProt P20309). Kind of test: Inhibition of human recombinant M3 receptor at 10 uM by radioligand binding assay.
Test [5] concerns the target Sodium-dependent dopamine transporter (Homo sapiens) (UniProt Q01959). Kind of test: Inhibition of human recombinant DAT at 10 uM by radioligand binding assay.
Test [6] has as its target T1, Neuromedin-K receptor (Homo sapiens) (UniProt P29371).
T1 sequence (whole entry): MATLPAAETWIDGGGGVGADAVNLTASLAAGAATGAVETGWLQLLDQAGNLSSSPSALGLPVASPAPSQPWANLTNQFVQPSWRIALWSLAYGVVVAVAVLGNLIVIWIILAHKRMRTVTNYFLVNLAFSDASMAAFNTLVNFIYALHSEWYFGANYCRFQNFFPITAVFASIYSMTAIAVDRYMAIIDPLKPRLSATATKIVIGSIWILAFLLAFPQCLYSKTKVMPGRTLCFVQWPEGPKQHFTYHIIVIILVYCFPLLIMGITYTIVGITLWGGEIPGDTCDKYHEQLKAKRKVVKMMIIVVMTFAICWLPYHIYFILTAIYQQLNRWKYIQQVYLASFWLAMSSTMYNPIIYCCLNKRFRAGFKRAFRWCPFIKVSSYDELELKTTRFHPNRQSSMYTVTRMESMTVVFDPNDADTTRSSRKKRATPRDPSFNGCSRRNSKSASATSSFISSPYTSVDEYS
Briefly: Inhibition of human recombinant NK3 receptor at 10 uM by radioligand binding assay.

Test [7] addresses Kappa-type opioid receptor (Homo sapiens) (UniProt P41145). Kind of test: Inhibition of human recombinant KOP receptor at 10 uM by radioligand binding assay.
The target of test [8] is T2, Vasoactive intestinal polypeptide receptor 1 (Homo sapiens) (UniProt P32241).
T2 sequence (whole entry): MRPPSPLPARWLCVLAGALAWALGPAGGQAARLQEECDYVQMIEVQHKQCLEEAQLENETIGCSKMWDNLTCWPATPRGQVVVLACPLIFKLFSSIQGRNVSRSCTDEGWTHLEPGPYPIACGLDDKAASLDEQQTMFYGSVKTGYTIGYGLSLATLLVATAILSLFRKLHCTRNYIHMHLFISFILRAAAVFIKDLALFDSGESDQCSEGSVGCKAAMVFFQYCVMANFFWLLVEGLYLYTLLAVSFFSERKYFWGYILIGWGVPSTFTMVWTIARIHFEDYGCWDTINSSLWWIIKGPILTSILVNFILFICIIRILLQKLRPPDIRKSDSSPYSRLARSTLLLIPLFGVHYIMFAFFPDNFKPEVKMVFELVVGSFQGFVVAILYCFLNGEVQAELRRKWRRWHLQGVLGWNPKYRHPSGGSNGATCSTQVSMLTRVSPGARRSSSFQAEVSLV
Kind of test: Inhibition of human recombinant VPAC1 receptor at 10 uM by radioligand binding assay.

Test [9] addresses T3, C-X-C chemokine receptor type 2 (Homo sapiens) (UniProt P25025).
T3 sequence (whole entry): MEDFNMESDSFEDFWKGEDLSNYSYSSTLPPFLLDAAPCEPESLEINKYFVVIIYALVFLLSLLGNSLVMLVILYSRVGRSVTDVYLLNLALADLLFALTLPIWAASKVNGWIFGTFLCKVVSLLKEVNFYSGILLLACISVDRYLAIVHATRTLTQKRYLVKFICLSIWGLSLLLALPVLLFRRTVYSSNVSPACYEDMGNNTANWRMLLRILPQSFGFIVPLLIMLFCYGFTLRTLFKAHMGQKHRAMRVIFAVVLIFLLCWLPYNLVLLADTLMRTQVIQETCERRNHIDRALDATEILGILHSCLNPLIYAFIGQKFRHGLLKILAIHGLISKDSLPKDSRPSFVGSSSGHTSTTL
Briefly: Inhibition of human recombinant CXCR2 receptor at 10 uM by radioligand binding assay.

Test [10] concerns the target Sodium-dependent serotonin transporter (Homo sapiens) (UniProt P31645). Briefly: Inhibition of human recombinant 5HT transporter at 10 uM by radioligand binding assay.
The target of test [11] is Beta-1 adrenergic receptor (Homo sapiens) (UniProt P08588). Briefly: Inhibition of human recombinant beta1 receptor at 10 uM by radioligand binding assay.
Beta-1 adrenergic receptor (Homo sapiens), sequence (P08588 whole entry, looked up): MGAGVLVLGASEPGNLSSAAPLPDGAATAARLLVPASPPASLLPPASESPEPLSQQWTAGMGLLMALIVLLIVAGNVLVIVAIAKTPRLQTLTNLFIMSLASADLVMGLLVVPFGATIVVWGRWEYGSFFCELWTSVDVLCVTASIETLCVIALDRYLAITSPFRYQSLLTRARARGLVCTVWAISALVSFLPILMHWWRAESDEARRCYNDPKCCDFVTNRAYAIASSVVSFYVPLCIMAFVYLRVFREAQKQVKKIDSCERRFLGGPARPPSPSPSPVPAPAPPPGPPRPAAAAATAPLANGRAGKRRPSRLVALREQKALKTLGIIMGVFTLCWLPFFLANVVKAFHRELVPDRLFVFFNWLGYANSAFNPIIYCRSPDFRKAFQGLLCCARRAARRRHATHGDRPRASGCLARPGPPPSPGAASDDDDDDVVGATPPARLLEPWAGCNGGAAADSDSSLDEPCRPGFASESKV
Test [12] has as its target T4, 5-hydroxytryptamine receptor 1A (Homo sapiens) (UniProt P08908).
T4 sequence (whole entry): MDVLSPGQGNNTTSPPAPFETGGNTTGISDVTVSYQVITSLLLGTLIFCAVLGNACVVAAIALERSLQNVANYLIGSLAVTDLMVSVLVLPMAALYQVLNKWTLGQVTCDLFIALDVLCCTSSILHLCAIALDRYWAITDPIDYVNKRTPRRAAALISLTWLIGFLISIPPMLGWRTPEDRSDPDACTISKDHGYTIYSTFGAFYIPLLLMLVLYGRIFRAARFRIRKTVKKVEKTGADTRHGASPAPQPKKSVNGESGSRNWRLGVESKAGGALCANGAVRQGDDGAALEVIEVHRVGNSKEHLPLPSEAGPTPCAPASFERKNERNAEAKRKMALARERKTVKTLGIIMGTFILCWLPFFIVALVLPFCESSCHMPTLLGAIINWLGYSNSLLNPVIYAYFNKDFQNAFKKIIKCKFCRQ
Kind of test: Inhibition of human recombinant 5HT1A receptor at 10 uM by radioligand binding assay.

The species named for test [13] is Homo sapiens. Briefly: Inhibition of human recombinant sodium channel at 10 uM by radioligand binding assay.
Test [14] has as its target Cannabinoid receptor 1 (Homo sapiens) (UniProt P21554). Kind of test: Inhibition of human recombinant CB1 receptor at 10 uM by radioligand binding assay.
Test [15] has as its target 5-hydroxytryptamine receptor 7 (Homo sapiens) (UniProt P34969). Briefly: Inhibition of human recombinant 5HT7 receptor at 10 uM by radioligand binding assay.
Test [16] deals with Histamine H1 receptor (Homo sapiens) (UniProt P35367). Kind of test: Inhibition of human recombinant H1 receptor at 10 uM by radioligand binding assay.
Histamine H1 receptor (Homo sapiens), sequence (P35367 whole entry): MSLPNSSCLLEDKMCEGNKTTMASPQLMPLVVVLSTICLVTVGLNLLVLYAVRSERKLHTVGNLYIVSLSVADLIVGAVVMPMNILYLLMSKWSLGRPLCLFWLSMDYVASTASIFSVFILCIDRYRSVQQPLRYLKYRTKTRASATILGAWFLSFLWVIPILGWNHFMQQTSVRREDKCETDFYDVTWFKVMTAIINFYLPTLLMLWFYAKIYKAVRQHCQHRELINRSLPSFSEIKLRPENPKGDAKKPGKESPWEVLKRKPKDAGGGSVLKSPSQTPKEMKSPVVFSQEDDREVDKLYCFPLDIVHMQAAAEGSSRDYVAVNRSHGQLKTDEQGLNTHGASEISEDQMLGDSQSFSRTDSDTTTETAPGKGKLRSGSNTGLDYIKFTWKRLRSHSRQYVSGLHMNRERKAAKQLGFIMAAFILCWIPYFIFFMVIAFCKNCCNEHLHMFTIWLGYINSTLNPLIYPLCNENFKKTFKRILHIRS
The species entered for test [17] is Homo sapiens. Kind of test: Inhibition of human recombinant Dop delta2 receptor at 10 uM by radioligand binding assay.
Test [18] in a line: Inhibition of GSNOR expressed in Escherichia coli using GSNO by plate method.

Muscarinic acetylcholine receptor M3 (Homo sapiens), sequence (P20309 whole entry, looked up): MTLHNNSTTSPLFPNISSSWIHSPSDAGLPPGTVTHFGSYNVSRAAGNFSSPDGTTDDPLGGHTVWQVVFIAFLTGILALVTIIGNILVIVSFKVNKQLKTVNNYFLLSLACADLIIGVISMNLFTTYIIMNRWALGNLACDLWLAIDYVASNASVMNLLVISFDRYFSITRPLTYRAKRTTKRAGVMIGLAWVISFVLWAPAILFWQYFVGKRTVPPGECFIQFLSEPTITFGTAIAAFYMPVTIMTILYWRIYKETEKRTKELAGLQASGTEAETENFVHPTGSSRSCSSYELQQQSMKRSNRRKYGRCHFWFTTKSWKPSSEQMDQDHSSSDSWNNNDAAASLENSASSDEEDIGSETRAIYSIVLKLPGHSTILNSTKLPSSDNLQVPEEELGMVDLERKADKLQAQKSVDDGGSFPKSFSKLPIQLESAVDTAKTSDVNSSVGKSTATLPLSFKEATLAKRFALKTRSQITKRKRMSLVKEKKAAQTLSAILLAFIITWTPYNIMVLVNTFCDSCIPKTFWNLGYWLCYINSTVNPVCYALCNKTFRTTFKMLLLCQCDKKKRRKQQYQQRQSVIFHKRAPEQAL
Sodium-dependent dopamine transporter (Homo sapiens), sequence (Q01959 whole entry): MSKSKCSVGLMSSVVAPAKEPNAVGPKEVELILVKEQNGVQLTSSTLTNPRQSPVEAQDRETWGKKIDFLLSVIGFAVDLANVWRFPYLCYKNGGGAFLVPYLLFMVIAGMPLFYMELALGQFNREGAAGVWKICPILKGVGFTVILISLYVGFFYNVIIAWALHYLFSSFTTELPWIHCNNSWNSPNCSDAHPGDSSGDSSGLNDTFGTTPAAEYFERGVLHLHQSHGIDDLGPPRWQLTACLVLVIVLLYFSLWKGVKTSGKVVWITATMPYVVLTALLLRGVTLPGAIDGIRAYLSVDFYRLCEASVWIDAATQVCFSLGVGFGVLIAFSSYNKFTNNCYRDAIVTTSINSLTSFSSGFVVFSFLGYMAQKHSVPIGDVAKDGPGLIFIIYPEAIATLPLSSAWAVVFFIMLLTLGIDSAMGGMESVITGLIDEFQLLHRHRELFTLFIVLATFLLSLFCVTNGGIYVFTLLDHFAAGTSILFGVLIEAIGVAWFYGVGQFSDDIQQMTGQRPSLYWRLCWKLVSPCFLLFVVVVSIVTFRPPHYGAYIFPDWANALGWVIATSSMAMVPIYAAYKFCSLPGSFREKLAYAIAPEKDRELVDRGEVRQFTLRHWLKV
Cannabinoid receptor 1 (Homo sapiens), sequence (P21554 whole entry): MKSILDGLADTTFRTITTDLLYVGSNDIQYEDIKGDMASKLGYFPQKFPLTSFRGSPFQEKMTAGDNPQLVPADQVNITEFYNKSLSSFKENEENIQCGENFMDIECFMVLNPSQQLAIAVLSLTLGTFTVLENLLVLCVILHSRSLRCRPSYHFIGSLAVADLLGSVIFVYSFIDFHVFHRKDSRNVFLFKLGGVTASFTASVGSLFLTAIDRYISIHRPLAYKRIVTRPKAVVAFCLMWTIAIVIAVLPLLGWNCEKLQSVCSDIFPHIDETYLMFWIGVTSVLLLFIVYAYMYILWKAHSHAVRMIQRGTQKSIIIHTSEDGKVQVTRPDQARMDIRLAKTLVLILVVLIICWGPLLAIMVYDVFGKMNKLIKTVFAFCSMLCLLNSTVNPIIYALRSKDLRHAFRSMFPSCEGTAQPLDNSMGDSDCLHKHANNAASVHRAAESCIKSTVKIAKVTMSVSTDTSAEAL
Sodium-dependent serotonin transporter (Homo sapiens), sequence (P31645 whole entry, looked up): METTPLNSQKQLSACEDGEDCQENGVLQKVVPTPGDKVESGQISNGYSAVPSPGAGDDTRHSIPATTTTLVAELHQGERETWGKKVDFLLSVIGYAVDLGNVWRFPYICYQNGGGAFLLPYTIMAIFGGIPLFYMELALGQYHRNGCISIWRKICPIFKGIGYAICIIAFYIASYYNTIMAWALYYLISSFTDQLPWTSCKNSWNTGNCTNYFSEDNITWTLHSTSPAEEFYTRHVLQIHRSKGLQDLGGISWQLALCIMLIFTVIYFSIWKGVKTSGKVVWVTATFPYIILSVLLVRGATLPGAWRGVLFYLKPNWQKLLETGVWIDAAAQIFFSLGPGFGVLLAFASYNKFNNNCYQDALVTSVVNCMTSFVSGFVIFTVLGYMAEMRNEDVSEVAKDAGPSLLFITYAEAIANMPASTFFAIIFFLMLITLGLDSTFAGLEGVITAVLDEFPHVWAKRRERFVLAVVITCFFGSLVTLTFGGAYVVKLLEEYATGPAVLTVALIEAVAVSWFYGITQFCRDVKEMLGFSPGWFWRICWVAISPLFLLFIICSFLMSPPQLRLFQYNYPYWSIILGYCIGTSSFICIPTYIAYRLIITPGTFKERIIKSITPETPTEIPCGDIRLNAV
Kappa-type opioid receptor (Homo sapiens), sequence (P41145 whole entry): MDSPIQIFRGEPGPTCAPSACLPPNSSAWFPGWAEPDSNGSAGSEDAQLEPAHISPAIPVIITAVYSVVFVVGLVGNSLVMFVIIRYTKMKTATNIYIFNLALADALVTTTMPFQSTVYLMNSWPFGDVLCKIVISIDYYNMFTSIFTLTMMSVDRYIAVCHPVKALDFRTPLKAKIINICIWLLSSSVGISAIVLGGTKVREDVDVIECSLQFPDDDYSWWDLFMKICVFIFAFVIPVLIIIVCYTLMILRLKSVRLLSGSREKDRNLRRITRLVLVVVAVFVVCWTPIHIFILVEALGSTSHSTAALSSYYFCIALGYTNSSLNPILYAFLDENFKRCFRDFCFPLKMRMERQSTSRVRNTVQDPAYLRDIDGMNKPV
5-hydroxytryptamine receptor 7 (Homo sapiens), sequence (P34969 whole entry): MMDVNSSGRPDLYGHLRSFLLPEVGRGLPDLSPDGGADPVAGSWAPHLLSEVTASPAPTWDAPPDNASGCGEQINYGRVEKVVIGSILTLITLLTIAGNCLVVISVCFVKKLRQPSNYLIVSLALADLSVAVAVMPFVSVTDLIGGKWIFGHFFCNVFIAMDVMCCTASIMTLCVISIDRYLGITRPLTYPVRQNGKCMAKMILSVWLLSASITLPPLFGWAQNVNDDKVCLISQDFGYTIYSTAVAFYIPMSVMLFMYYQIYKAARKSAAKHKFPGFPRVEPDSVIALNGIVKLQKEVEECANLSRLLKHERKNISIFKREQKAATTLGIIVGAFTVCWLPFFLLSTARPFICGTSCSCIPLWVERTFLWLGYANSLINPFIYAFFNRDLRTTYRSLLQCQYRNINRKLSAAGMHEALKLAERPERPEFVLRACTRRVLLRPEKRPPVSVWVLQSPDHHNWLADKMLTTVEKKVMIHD

For the compound `COc1ccc(-c2ccn(-c3ccc(O)c([N+](=O)[O-])c3)c2-c2ccc(C(N)=O)cc2C)cc1`, the inhibition result (in the test filed under Homo sapiens [1]; in [2]; in [3]; in [4]; in [5]; in test [6]) was “Active” throughout. Besides, the inhibition entry in test [7], in test [8], in test [9], in [10], in test [11] and in [12] was “Active” in each case. In addition, the inhibition entry (in the test filed under Homo sapiens [13]; in test [14]; in test [15]; in test [16]; in the test listed under Homo sapiens [17]) was “Active” in each case.
With `Cc1cc(C(N)=O)ccc1-c1c(CCC(=O)O)ccn1-c1ccc(-n2ccnc2)cc1`, the inhibition result (in the test filed under Homo sapiens [1]; in [2]; in test [3]; in test [4]; in test [5]; in test [6]) was “inactive” in each case. Also, the inhibition result in test [7], in [8], in test [9], in test [10], in test [11] and in test [12] was “inactive” each time. For the same compound, the inhibition result (in the test listed under Homo sapiens [13]; in test [14]; in test [15]; in test [16]) was “inactive” throughout. In [18], this compound yielded an IC50 of 9.9 nM. Also, the inhibition result in the test listed under Homo sapiens [17] was “Active”.
Regarding `Cc1cc(C(N)=O)ccc1-c1c(-c2ccc(-n3ccnc3)cc2)ccn1CCC(=O)O`, the inhibition entry (in the test filed under Homo sapiens [1]; in test [2]; in test [3]; in test [4]; in [5]; in test [6]) was “inactive” each time. The inhibition result in test [7], in test [8], in test [9], in [10], in test [11] and in test [12] was “inactive” throughout. Further, the inhibition entry (in the test filed under Homo sapiens [13]; in [14]; in test [15]; in [16]) was “inactive” each time. The compound further returned a concentration for half-maximal inhibition (IC50) in [18] of 35 nM. Besides, the inhibition result in the test filed under Homo sapiens [17] was “Active”.
Consider `Cc1cc(C(N)=O)ccc1-n1c(CCC(=O)O)ccc1-c1ccc(-n2ccnc2)cc1` [N6022], for which the inhibition entry (in the test filed under Homo sapiens [1]; in [3]; in test [4]; in test [5]; in test [6]; in test [7]) was “inactive” in each case. Further, the inhibition entry (in test [8]; in test [9]; in test [10]; in [11]; in test [12]; in the test filed under Homo sapiens [13]) was “inactive” each time. Moreover, the inhibition entry in [14], in test [15] and in test [16] was “inactive” in each case. The same compound gave an IC50 in test [18] of 10 nM. Also, in the test filed under Homo sapiens [17], the inhibition result is “Active”.
`COc1ccc(-c2ccn(-c3ccc(C(=O)O)c(O)c3)c2-c2ccc(C(N)=O)cc2C)cc1`: the inhibition entry (in the test filed under Homo sapiens [1]; in test [2]; in test [3]; in test [4]; in test [5]; in test [6]) was “Active” in each case. In addition, the inhibition entry in test [7], in [8], in test [9], in test [10], in test [11] and in test [12] was “Active” throughout. The inhibition entry (in the test filed under Homo sapiens [13]; in test [14]; in [15]; in [16]; in the test listed under Homo sapiens [17]) was “Active” throughout.
